Patent US20260158158A1, “ANTIBODY-DRUG CONJUGATE, PREPARATION METHOD THEREFOR AND USE THEREOF” (HANGZHOU ADCORIS BIOPHARMA CO., LTD, priority 2023, published 2026)

What was measured:
Format in all cases: in vivo, BALB/c nude mice
[1] = system: Pancreatic cancer cell BXPC-3; assay: Tumor growth inhibition in BXPC-3 CDX model (nude mouse xenograft); conditions: BIW × 3 weeks
Text: (§1) Method for testing tumor inhibitory activity of ADC in nude mouse xenograft model (cell-derived xenograft, CDX): Pancreatic cancer cell BXPC-3, lung adenocarcinoma cell NCI-H1975, triple-negative breast cancer cell MDA-MB-231, and esophageal squamous carcinoma cell KYSE-150 were subjected to monolayer culturing in vitro. When cell saturation reached 80%-90%, the cells were digested with trypsin-EDTA and centrifuged. The supernatant was discarded. The cells were re-suspended in PBS. The cell suspension was adjusted to an appropriate concentration. BXPC-3, NCI-H1975, MDA-MB-231, and KYSE-150 cells (2-10×10^6 cells/0.1 mL) were separately subcutaneously inoculated into BALB/c nude mice. The animals and the growth of transplanted tumors were observed regularly. When the tumor volume reached approximately 100-200 mm^3, the mice were randomly divided into groups based on tumor volume and body weight, with 6 animals per group. The animals were administered regularly via intravenous injection. Twice a week, the longer diameter a (mm) and shorter diameter b (mm) of the tumor were measured with a vernier caliper and the body weight of the mice was measured. The tumor volume (V) was calculated according to the following formula: V=½×a×b^2 (mm^3), in which a and b represented the length and width of the tumor, respectively. A growth curve was plotted. Finally, the tumor was excised and weighed. […]

[2] = system: esophageal squamous carcinoma cell KYSE-150; assay: Tumor growth inhibition in KYSE-150 CDX model (nude mouse xenograft); conditions: 10 mg/kg iv, BIW × 2 weeks
Text: as §1

[3] = system: lung adenocarcinoma cell NCI-H1975; assay: Tumor growth inhibition in NCI-H1975 model (nude mouse xenograft); conditions: NCI-H1975, 10 mg/kg iv, BIW × 2 weeks
Text: as §1

[4] = system: triple-negative breast cancer cell MDA-MB-231; assay: Tumor growth inhibition in MDA-MB-231 CDX model (nude mouse xenograft); conditions: 10 mg/kg iv, BIW × 3 doses
Text: as §1

CC[C@@]1(O)C(=O)OCc2c1cc1n(c2=O)Cc2c-1nc1cc(F)c(C)c3c1c2[C@@H](NC(=O)CONC)CC3 [Compound 10]
Tumor inhibition on D33 ([1]; 0.12 mg/kg iv): 16.75%

Nc1ccn([C@@H]2O[C@H](CO)[C@@H](O)C2(F)F)c(=O)n1 [Gemcitabine]
Tumor inhibition on D33 ([1]; 90 mg/kg iv): 41.52%

CC(=O)O[C@H]1C(=O)[C@@]2(C)[C@H]([C@H](OC(=O)c3ccccc3)[C@]3(O)C[C@H](OC(=O)[C@H](O)[C@@H](NC(=O)c4ccccc4)c4ccccc4)C(C)=C1C3(C)C)[C@]1(OC(C)=O)CO[C@@H]1C[C@@H]2O [Paclitaxel]
Tumor inhibition on D21 [2]: 78.00%
Tumor inhibition on D21 [3]: 94.5%
Tumor inhibition on D25 [4]: 79.96%
